Consider 47 molecules from US11286268B1, “EIF4E-inhibiting compounds and methods” (EFFECTOR THERAPEUTICS, INC., priority 2019, dated 2022).

For this assay, the target named is recombinant eIF4E (Homo sapiens (Human), UniProt P06730). Put plainly: Fluorescence polarization competition assay for eIF4E binding potency. The essentials:
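Protein and fluorescent cap-analog probe (EDA-m7GDP-ATTO-550) were mixed first for 5 min, after which serially diluted compound was added to final 75 nM eIF4E, 20 nM probe, 1% DMSO. Reactions equilibrated 30 min at room temperature before polarization was measured.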
In general terms: In fluorescence polarisation assays a small probe gives low polarisation when free and higher when bound to something large.

The mark [1] stands for this setting: inhibition of eIF4E/EDA-m7GDP-ATTO-550 binding, calculated IC50 values, Table 4B, read-out: IC50.
The mark [2] stands for this setting: fluorescence polarization competition, 75 nM recombinant eIF4E, 20 nM EDA-m7GDP-ATTO-550, IC50 class, read-out: elF4E FP.
Setting [3] is: inhibition of eIF4E/EDA-m7GDP-ATTO-550 binding by 50%, Table 4B calculated values, read-out: IC50.

Where two headings read alike, the source gives them in different places.

Chain of recombinant eIF4E (P06730 whole entry): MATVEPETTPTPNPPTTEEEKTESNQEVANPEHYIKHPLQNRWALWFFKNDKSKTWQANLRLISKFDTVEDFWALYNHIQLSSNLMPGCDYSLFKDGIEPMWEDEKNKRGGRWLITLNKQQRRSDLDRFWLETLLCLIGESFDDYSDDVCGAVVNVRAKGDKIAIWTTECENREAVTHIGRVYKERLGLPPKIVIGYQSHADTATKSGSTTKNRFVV

For the molecule `Cc1nc2cc(C(F)(F)F)c(N3CCC4(CC3)CN(CC(F)F)C4)c(C#N)c2c(=O)n1CCOc1ccc(Cl)cc1-c1ccnc2c(C(=O)O)csc12` [compound 1912], the IC50 under setting [1] was 5.96 nM.
`Cc1cc(-c2cc(Cl)ccc2OCCn2c(C)nc3cc(C(F)(F)F)cc(C#N)c3c2=O)c2scc(C(=O)O)c2n1` [compound 121]: the IC50 runs as follows: under setting [2], under 50 nM; under setting [3], 37.5 nM.
The corresponding values for `Cc1nc2cc(S(C)(=O)=O)c(F)c(C#N)c2c(=O)n1CCOc1ccc(Cl)cc1-c1ccnc2c(C(=O)O)csc12` [compound 278] are under 50 nM and 12.7 nM.
As to `Cc1cc(-c2cc(Cl)ccc2OCCn2c(C)nc3cc(C(F)(F)F)c(-c4ccccc4C(N)=O)nc3c2=O)c2scc(C(=O)O)c2n1` [345b], the IC50 under setting [3] was 25.3 nM.
On to `Cc1cc(-c2cc(Cl)ccc2OCCn2c(C)nc3cc(C(F)(F)F)c(CC4CCNCC4)c(C#N)c3c2=O)c2scc(C(=O)O)c2n1` [compound 714], for which the IC50 is under 50 nM under setting [2] and 47.2 nM under setting [3].
On to `CCN(c1ncc2nc(C)n(CC#Cc3ccc(Cl)cc3-c3ccnc4c(C(=O)NS(=O)(=O)c5ccncc5)csc34)c(=O)c2c1C#N)C1CCN([C@H]2C[C@@H](OC(F)(F)F)C2)CC1` [compound 1779], for which the IC50 under setting [1] is 35.1 nM.
On to `Cc1nc2c(F)cc(C(F)F)c(C#N)c2c(=O)n1CCOc1cc(F)c(Cl)cc1-c1ccnc2c(C(=O)O)csc12` [compound 504], for which the IC50 was under 50 nM under setting [2] and 22.9 nM under setting [3].
The corresponding values for `Cc1cc(-c2cc(Cl)ccc2OCCn2c(C)nc3ccc(OC(F)(F)F)c(C#N)c3c2=O)c2scc(C(=O)O)c2n1` [compound 583] are under 50 nM and 15.9 nM.
Take `Cc1nc2cncc(C#N)c2c(=O)n1CCOc1ccc(Cl)cc1-c1cccc(P(=O)(O)OC(C)C)c1` [150FB]: the IC50 under setting [3] is 143 nM.
Take `Cc1cc(-c2cc(Cl)ccc2OCCn2c(C)nc3cc(Cl)c(N4CCCC4(C)C)c(C#N)c3c2=O)c2scc(C(=O)O)c2n1` [compound 920]: the IC50 reads like this: under setting [2], under 50 nM; under setting [3], 5.76 nM.
The corresponding values for `Cc1cc(-c2cc(Cl)ccc2OCCn2c(C)nc3cc(C(F)(F)F)c(OCc4ccccn4)c(C#N)c3c2=O)c2scc(C(=O)O)c2n1` [compound 1033] are under 50 nM and 20 nM.
Regarding `Cc1ncc(C#N)c2c(=O)n(CCOc3ccc(Cl)cc3-c3ccc(C)c4c(C(=O)O)csc34)c(C)nc12` [compound 722], the IC50 under setting [2] was under 50 nM and the IC50 under setting [3] is 38 nM.
In the case of `Cc1nc2cnc(C3CC3)c(C#N)c2c(=O)n1CCOc1ccc(Cl)cc1Cc1cc(C(=O)O)cs1` [compound 970], the IC50 was 50 to 1000 nM under setting [2] and 166 nM under setting [3].
As for `Cc1cc(-c2cc(Cl)ccc2OCCn2c(C)nc3cc(C(F)(F)F)c(N4CC5(CN(C)C5)C4)c(C#N)c3c2=O)c2sc(C)c(C(=O)O)c2n1` [compound 1420], the IC50 under setting [1] is 6.33 nM.
Consider `Cc1nc2cnc(OC3CCNCC3)c(C#N)c2c(=O)n1CCOc1ccc(Cl)cc1-c1ccnc2c(C(=O)O)csc12` [compound 819], for which the IC50 runs as follows: under setting [2], under 50 nM; under setting [3], 28.2 nM.
Turning to `CONC(=O)c1csc2c(-c3cc(Cl)ccc3OCCn3c(C)nc4cc(C(F)(F)F)c(Cl)c(C#N)c4c3=O)ccnc12` [compound 521], the IC50 by setting is: under setting [2], 50 to 1000 nM; under setting [3], 623 nM.
The matching figures for `Cc1nc2cc(C(F)F)c(CN(C)C)c(C#N)c2c(=O)n1CCOc1ccc(Cl)cc1-c1ccnc2c(C(=O)O)csc12` [compound 530]: under 50 nM and 6.65 nM.
With `Cc1cc(-c2cc(Cl)ccc2OCCn2c(C)nc3cnc(C(C)(C)C)c(C#N)c3c2=O)c2scc(C(=O)O)c2n1` [compound 420], the IC50 is under 50 nM under setting [2] and 9.6 nM under setting [3].
The corresponding values for `Cc1ccc(-c2cc(Cl)ccc2OCCn2c(C)nc3cnc(C4CC4)c(C#N)c3c2=O)c2scc(C(=O)O)c12` [compound 794] are under 50 nM and 3.41 nM.
The matching figures for `Cc1cc(-c2cc(Cl)ccc2OCCn2c(C)nc3cc(C(F)(F)F)c(N4CCN(C)CC4)nc3c2=O)c2sc(C)c(C(=O)O)c2n1` [compound 1096]: under 50 nM and 33.5 nM.
The matching figures for `CCc1cccc(-c2c(C(F)(F)F)cc3nc(C)n(CCOc4ccc(Cl)cc4-c4cc(C)nc5c(C(=O)O)csc45)c(=O)c3c2C#N)n1` [compound 776]: under 50 nM and 36.5 nM.
Consider `CCN(c1ncc2nc(C)n(CC#Cc3ccc(Cl)cc3-c3ccnc4c(C(=O)NS(=O)(=O)CC(F)F)csc34)c(=O)c2c1C#N)C1CCN(C2COC2)CC1` [compound 1745], for which, under setting [1], the IC50 was 11 nM.
With `Cc1cc(-c2cc(Cl)ccc2OCCn2c(C)nc3cnc(C4CCCC4(F)F)c(C#N)c3c2=O)c2scc(C(=O)O)c2n1` (stereo not drawn) [compound 929], the IC50 under setting [2] is under 50 nM and the IC50 under setting [3] was 22.5 nM.
The corresponding values for `Cc1nc2cc(C(F)(F)F)cc(C(F)F)c2c(=O)n1CCOc1ccc(Cl)cc1-c1ccnc2c(C(=O)O)csc12` [compound 220] are 50 to 1000 nM and 213 nM.
Regarding `N#Cc1cc2c(=O)n(CCOc3ccc(Cl)cc3-c3ccc(C#N)c(C(=O)O)c3)cnc2cn1` [compound 94], the IC50 is over 1000 nM under setting [2] and 1420 nM under setting [3].
As for `Cc1nc2cnc(/C=C/CN(C)C)c(C#N)c2c(=O)n1CC#Cc1ccc(Cl)cc1-c1ccnc2c(C(=O)O)csc12` [compound 1498], the IC50 under setting [1] was 29.1 nM.
Same read-out and setting: next, `O=C(O)c1cc2ccc1CCCCCc1nc3cc(C(F)(F)F)cc(Br)c3c(=O)n1CCOc1ccc(Cl)cc1-2` [compound 2013]: over 10000 nM; `Cc1nc2cnc(-c3cccc(CN(C)CC(F)F)c3)c(C#N)c2c(=O)n1CC#Cc1ccc(Cl)cc1-c1ccnc2c(C(=O)O)csc12` [compound 1559]: 13.4 nM; `Cc1nc2cnc(C3CCCN(CC(F)F)C3)c(C#N)c2c(=O)n1CC#Cc1ccc(Cl)cc1-c1ccnc2c(C(=O)O)csc12` (stereo not drawn) [compound 1574]: 13.4 nM.
In the case of `Cc1nc2cc(OC(F)(F)F)c(CN(C)C)c(C#N)c2c(=O)n1CCOc1ccc(Cl)cc1-c1ccnc2c(C(=O)O)csc12` [compound 532], the IC50 is, setting by setting: under setting [2], under 50 nM; under setting [3], 45.1 nM.
Turning to `Cc1nc2cnc(N(C)C3CCN(C4CC(F)(F)C4)CC3)c(C#N)c2c(=O)n1CC#Cc1ccc(Cl)cc1-c1ccnc2c(C(=O)NS(=O)(=O)c3ccncc3)csc12` [compound 1829], under setting [1], the IC50 is 6.27 nM.
On to `Cc1cc(-c2cc(Cl)ccc2OCCn2c(C)nc3c(C(F)F)ncc(C#N)c3c2=O)c2scc(C(=O)O)c2n1` [compound 372], for which the IC50 is under 50 nM under setting [2] and 7.34 nM under setting [3].
On to `Cc1cc(-c2cc(Cl)ccc2OCCn2c(C)nc3cnc(C(C)F)c(C#N)c3c2=O)c2scc(C(=O)O)c2n1` (stereo not drawn) [compound 1065], for which the IC50 reads like this: under setting [2], under 50 nM; under setting [3], 18.6 nM.
Turning to `Cc1nc2cnc(N(C)C3CCN(C4CC(F)(F)C4)CC3)c(C#N)c2c(=O)n1CC#Cc1ccc(Cl)cc1-c1ccnc2c(C(=O)NS(=O)(=O)C(F)(F)F)csc12` [compound 1818], the IC50 under setting [1] is 13 nM.
For `CCc1cc(-c2cc(Cl)ccc2OCCn2c(C)nc3cc(C(F)(F)F)c(-c4ccn(C)n4)c(C#N)c3c2=O)c2scc(C(=O)O)c2n1` [compound 1014], the IC50 under setting [2] is under 50 nM and the IC50 under setting [3] was 25.6 nM.
The matching figures for `Cc1cc(-c2cc(Cl)ccc2OCCn2c(C)nc3cnc(-c4ccc(Cl)cc4)c(C#N)c3c2=O)c2scc(C(=O)O)c2n1` [compound 949]: under 50 nM and 37.3 nM.
The matching figures for `Cc1nc2cc(C(F)(F)F)c(CCN(C)C)cc2c(=O)n1CCOc1ccc(Cl)cc1-c1ccnc2c(C(=O)O)csc12` [compound 858]: under 50 nM and 7.28 nM.
With `Cc1cc(-c2cc(Cl)ccc2OCCn2c(C)nc3c(=O)n(C)c(-c4ccccc4)c(C#N)c3c2=O)c2scc(C(=O)O)c2n1` [compound 1193], the IC50 under setting [2] was under 50 nM.
For `Cc1nc2cnc(N3CCN(CCCC(F)(F)F)CC3)c(C#N)c2c(=O)n1CC#Cc1ccc(Cl)cc1-c1ccnc2c(C(=O)O)csc12` [compound 1458], the IC50 under setting [1] was 19.1 nM.
With `CS(=O)(=O)c1cc(C(=O)O)cc(-c2cc(Cl)ccc2OCCn2cnc3cnc(C#N)cc3c2=O)c1` [compound 112], the IC50 was over 1000 nM under setting [2] and over 3000 nM under setting [3].
The matching figures for `Cc1nc2c(-c3cncnc3)ccc(C#N)c2c(=O)n1CCOc1ccc(Cl)cc1-c1ccnc2c(C(=O)O)csc12` [compound 204]: under 50 nM and 44.4 nM.
The matching figures for `Cc1cc(-c2cc(Cl)ccc2OCCn2c(C)nc3cc(CN(C)C(C)(C)C)c(OC(F)F)c(C#N)c3c2=O)c2scc(C(=O)O)c2n1` [compound 618]: under 50 nM and 2.98 nM.
In the case of `Cc1cc(-c2cc(Cl)ccc2OCCn2c(C)nc3cc(CF)c(C)c(C#N)c3c2=O)c2scc(C(=O)O)c2n1` [compound 724], the IC50 by setting is: under setting [2], under 50 nM; under setting [3], 37.7 nM.
With `Cc1nc2cnc(N(C)C3CCN(C4COC4)CC3)c(C#N)c2c(=O)n1CCOc1ccc(Cl)cc1-c1ccnc2c(C(=O)O)csc12` [compound 1320], the IC50 under setting [1] was 27.7 nM.
As for `Cc1cc(-c2cc(Cl)ccc2OCCn2c(C)nc3cnc(N4CCN(C)CC4)c(C#N)c3c2=O)c2sccc2n1` [compound 1089], the IC50 reads like this: under setting [2], 50 to 1000 nM; under setting [3], 618 nM.
The corresponding values for `CC#Cc1c(C(=O)O)cccc1-c1cc(Cl)ccc1OCCn1cnc2cnc(C#N)cc2c1=O` [compound 24] are 50 to 1000 nM and 184 nM.
Take `Cc1cc(-c2cc(Cl)ccc2OCCn2c(C)nc3cc(C(F)(F)F)c(-c4ncccc4C)c(C#N)c3c2=O)c2scc(C(=O)O)c2n1` [compound 1380]: the IC50 under setting [1] was 26.6 nM.
